Counter-ions that a name gives are not always drawn. Like-named read-outs stand apart in the source and are kept apart here. Values belong to the compound of their own block, whether it stands above or below them.
Key:
[1] = tested on: Human Burkitt's lymphoma Daudi cell lines; assay: Pharmacodynamic experiment on subcutaneously transplanted tumor, Daudi, in NOD/SCID mice; assay type: in vivo; settings: 10 mg/kg i.v. three times a week (LBH589 dose), female NOD/SCID mice, day 32
Description: Establishment of subcutaneously transplanted tumor model: Human Burkitt's lymphoma Daudi cell lines were in vitro cultured in RPMI-1640 medium containing 10% fetal bovine serum, 100 U/mL penicillin, and 100 μg/mL streptomycin. The cells in logarithmic growth phase were selected, and washed three times with PBS buffer under sterile conditions. The single cell suspension was diluted with PBS buffer to 2×10^8 cells/mL for future use. […], 0.1 mL of single cell suspension was taken, and then subcutaneously inoculated into the back of female NOD/SCID mice with a weight of >20 g. Grouping and treatment: When the volume of the tumor reached 100-200 mm^3 or above (the measurement and calculation method of tumor volume (TV): TV (mm^3)=a×b2×π/6, wherein a and b represent the longest diameter and the shortest diameter (mm), respectively), tumor-bearing mice with excessive or insufficient tumor volumes would be eliminated, and qualified animals were randomly divided into groups.
Experimental endpoint and analysis indicators: Example 5 of the present invention was administered 14 times, and the experiment was terminated on the 32nd day after the first treatment. The analysis indicators are:
(2) Determination of tumor weight and calculation of tumor inhibition rate (%)
When the experiment was terminated, the animals was euthanized according to the operating procedures of animal experiments, and dissected to collect the tumor mass, which was then weighted. The tumor inhibition rate (%) was calculated according to the following formula: […]
(3) Animal survival and weight changes during the experimental process.

[2] = tested on: Human multiple myeloma RPMI-8226 cell lines; assay: Pharmacodynamic experiment on subcutaneously transplanted tumor, RPMI-8226, in NOD/SCID mice; assay type: in vivo; settings: 10 mg/kg i.v. three times a week; female NOD/SCID mice, day 32
Description: Establishment of subcutaneously transplanted tumor model: […] The cells in logarithmic growth phase were selected, and washed three times with PBS buffer under sterile conditions. The single cell suspension was diluted with PBS buffer to 7×10^7 cells/mL for future use. Prior to seeding, 0.1 mL of single cell suspension was taken, and then subcutaneously inoculated into the back of female NOD/SCID mice with a weight of >20 g. Grouping and treatment: When the volume of the tumor reached 100-200 mm^3 or above (the measurement and calculation method of tumor volume (TV): TV (mm^3)=a×b2×π/6, wherein a and b represent the longest diameter and the shortest diameter (mm), respectively), tumor-bearing mice with excessive or insufficient tumor volumes would be eliminated, and qualified animals were randomly divided into groups. […] “B” means Bortezomib; “D” means Dexamethasone; “L” means Lenalidomide. Experimental endpoint and analysis indicators: Example 5 of the present invention was administered 14 times, and the experiment was terminated on the 32nd day after the first treatment. The analysis indicators are: (2) Determination of tumor weight and calculation of tumor inhibition rate (%) When the experiment was terminated, according to the operating procedures of animal experiments, the animals was euthanized and dissected to collect the tumor mass, which was then weighted. The tumor inhibition rate (%) was calculated according to the following formula: [formula] (3) Animal survival and weight changes during the experimental process.

[3] = Phase solubility of PM in in-situ basic salt-forming agents (arginine, meglumine); assay type: physicochemical; settings: API saturated; for solubility thermodynamic: aqueous with cosolvent or surfactant or cyclodextrin, thermodynamic from solid, read-out: Drug concentration
Description: (§1) According to the pH guidance standard for injection, the optimal pH range for injection was 4-9.
(§2) Then, excessive PM raw materials were added and dissolved under ultrasound until saturation. A clear saturated solution was filtered out over a 0.22 μm membrane and transferred into a centrifuge tube. The concentration (mg/mL) and purity (0%) of dissolved PM raw materials were detected by HPLC, and then, whether there was drug precipitation was observed using a clarity detector after being stored in a refrigerator at 4° C. in dark for one day.

[4] = Phase solubility of PM in cyclodextrins (HP-β-CD, SBE-β-CD); assay type: physicochemical; settings: API saturated; for Storing at 4° C. for one day: cell wraps ('sediment')
Description: as §1
as §2, with “excess” for “excessive”, “(%)” for “(0%)”

- Animal numbers End/Begining [1]: 7/7
- Animal number End/Beginning [2]: 6/6
Structure (SMILES): Cc1[nH]c2ccccc2c1CCNCc1ccc(/C=C/C(=O)NO)cc1 [LBH589]
- Tumor inhibition rate (%) [1]: 76.92%
- Weight of tumor mass X ± SD ([1]; in g (unit assumed)): 0.83 ± 0.38
- Tumor inhibition rate (%) [2]: 59.79%
- Tumor weight (g) X ± SD [2]: 0.90 ± 0.37 g

- solubility thermodynamic ([3]; 1‰ (M/V) arginine solution in UP water, Arginine 1‰): 50 µg/mL
- solubility thermodynamic ([3]; 1‰ (M/V) meglumine solution in UP water, Meglumine 1‰): 130 µg/mL
- solubility thermodynamic ([3]; 3‰ (M/V) arginine solution in UP water, Arginine 3‰): 110 µg/mL
- solubility thermodynamic ([3]; 3‰ (M/V) meglumine solution in UP water, Meglumine 3‰): 240 µg/mL
- solubility thermodynamic ([3]; 5‰ (M/V) arginine solution in UP water, Arginine 5‰): 170 µg/mL
- solubility thermodynamic ([3]; 5‰ (M/V) meglumine solution in UP water, Meglumine 5‰): 350 µg/mL
- solubility thermodynamic ([3]; 8‰ (M/V) arginine solution in UP water, Arginine 8‰): 280 µg/mL
- solubility thermodynamic ([3]; 8‰ (M/V) meglumine solution in UP water, Meglumine 8‰): 460 µg/mL
- solubility thermodynamic ([3]; 10‰ (M/V) arginine solution in UP water, Arginine 10‰): 370 µg/mL
- solubility thermodynamic ([3]; 10‰ (M/V) meglumine solution in UP water, Meglumine 10‰): 700 µg/mL
- Drug purity (%) ([3]; Arginine 1‰): 100%
- pH value ([3]; Arginine 1‰): 8.87
- Drug purity (%) ([3]; Arginine 3‰): 100%
- pH value ([3]; Arginine 3‰): 9.30
- Drug purity (%) ([3]; Arginine 5‰): 100%
- pH value ([3]; Arginine 5‰): 9.61
- Drug purity (%) ([3]; Arginine 8‰): 98.97%
- pH value ([3]; Arginine 8‰): 9.76
- Drug purity (%) ([3]; Arginine 10‰): 99.24%
- pH value ([3]; Arginine 10‰): 9.84
- Drug purity (%) ([3]; Meglumine 1‰): 100%
- pH value ([3]; Meglumine 1‰): 9.65
- Drug purity (%) ([3]; Meglumine 3‰): 99.80%
- pH value ([3]; Meglumine 3‰): 9.98
- Drug purity (%) ([3]; Meglumine 5‰): 96.55%
- pH value ([3]; Meglumine 5‰): 10.22
- Drug purity (%) ([3]; Meglumine 8‰): 99.45%
- pH value ([3]; Meglumine 8‰): 10.41
- Drug purity (%) ([3]; Meglumine 10‰): 99.07%
- pH value ([3]; Meglumine 10‰): 10.42
- Drug concentration ([4]; HP-β-CD 5% (M/V)): 1850 µg/mL
- Drug purity (%) ([4]; HP-β-CD 5% (M/V)): 99.21%
- pH values ([4]; HP-β-CD 5% (M/V)): 2.42
- Storing at 4° C. for one day ([4]; HP-β-CD 5% (M/V)): Trace
- Drug concentration ([4]; HP-β-CD 10% (M/V)): 2020 µg/mL
- Drug purity (%) ([4]; HP-β-CD 10% (M/V)): 99.15%
- pH values ([4]; HP-β-CD 10% (M/V)): 2.54
- Storing at 4° C. for one day ([4]; HP-β-CD 10% (M/V)): Trace
- Drug concentration ([4]; HP-β-CD 15% (M/V)): 3160 µg/mL
- Drug purity (%) ([4]; HP-β-CD 15% (M/V)): 99.08%
- pH values ([4]; HP-β-CD 15% (M/V)): 2.55
- Storing at 4° C. for one day ([4]; HP-β-CD 15% (M/V)): Trace
- Drug concentration ([4]; HP-β-CD 20% (M/V)): 4130 µg/mL
- Drug purity (%) ([4]; HP-β-CD 20% (M/V)): 98.96%
- pH values ([4]; HP-β-CD 20% (M/V)): 2.67
- Storing at 4° C. for one day ([4]; HP-β-CD 20% (M/V)): Trace
- Drug concentration ([4]; HP-β-CD 25% (M/V)): 4520 µg/mL
- Drug purity (%) ([4]; HP-β-CD 25% (M/V)): 98.24%
- pH values ([4]; HP-β-CD 25% (M/V)): 2.7
- Storing at 4° C. for one day ([4]; HP-β-CD 25% (M/V)): Trace
- Drug concentration ([4]; SBE-β-CD 5% (M/V)): 930 µg/mL
- Drug purity (%) ([4]; SBE-β-CD 5% (M/V)): 99.78%
- pH value ([4]; SBE-β-CD 5% (M/V)): 3.77
- Storing at 4° C. for one day ([4]; SBE-β-CD 5% (M/V)): Trace
- Drug concentration ([4]; SBE-β-CD 10% (M/V)): 1180 µg/mL
- Drug purity (%) ([4]; SBE-β-CD 10% (M/V)): 99.01%
- pH value ([4]; SBE-β-CD 10% (M/V)): 3.71
- Storing at 4° C. for one day ([4]; SBE-β-CD 10% (M/V)): Trace
- Drug concentration ([4]; SBE-β-CD 15% (M/V)): 1800 µg/mL
- Drug purity (%) ([4]; SBE-β-CD 15% (M/V)): 99.35%
- pH value ([4]; SBE-β-CD 15% (M/V)): 3.67
- Storing at 4° C. for one day ([4]; SBE-β-CD 15% (M/V)): Trace
- Drug concentration ([4]; SBE-β-CD 20% (M/V)): 2220 µg/mL
- Drug purity (%) ([4]; SBE-β-CD 20% (M/V)): 99.35%
- pH value ([4]; SBE-β-CD 20% (M/V)): 3.64
- Storing at 4° C. for one day ([4]; SBE-β-CD 20% (M/V)): Trace
- Drug concentration ([4]; SBE-β-CD 25% (M/V)): 2610 µg/mL
- Drug purity (%) ([4]; SBE-β-CD 25% (M/V)): 99.17%
- pH value ([4]; SBE-β-CD 25% (M/V)): 3.57
- Storing at 4° C. for one day ([4]; SBE-β-CD 25% (M/V)): Trace
Structure (SMILES): CN(Cc1nc2c(N3CCOCC3)nc(-c3ccc(N)cc3)nc2n1C)c1ncc(C(=O)NO)cn1 [API, purinostat mesylate]
